Data reported in patent US9278958B2, “Anti-cancer compounds” (KATHOLIEKE UNIVERSITEIT LEUVEN, priority 2012, dated 2016).
Like-named read-outs stand apart in the source and are kept apart here.

Assays:
[1] = system: HL60, human leukemia cells; test: Cytostatic assay, HL-60; format: cell-based; settings: Table 2
Summary of the method: (§1)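 Cells (5-7.5×10^4/well) + test compound; growth 48–96 h (line-dependent), 37° C, humidified CO2 atmosphere; endpoint Coulter count.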

[2] = system: L1210 cells; test: Cytostatic assay, L1210; format: cell-based; settings: Mus musculus, Table 2
Summary of the method: as §1

[3] = system: LNCaP (UZ) prostate cancer cells; test: Cytostatic assay, LNCaP (UZ); format: cell-based; settings: Homo sapiens, Table 4
Summary of the method: as §1

[4] = system: HEL embryonic lung fibroblast cells; test: Cytostatic assay, HEL; format: cell-based; settings: Homo sapiens, Table 3
Summary of the method: as §1

[5] = system: HOS CD4+ osteosarcoma cells; test: Cytostatic assay, HOS CD4+; format: cell-based; settings: Homo sapiens; Table 3
Experimental: (§2) To each well of a 96-well microtiter plate were added 5-7.5×10^4 cells and a given amount of the test compound. The cells were allowed to proliferate for 48 h to 96 h (depending on the nature of the cell line) at 37° C. in a humidified CO2-controlled atmosphere. At the end of the incubation period, the cells were counted in a Coulter Counter (Coulter Electronics Ltd, Harpenden Herts, United Kingdom).

[6] = system: protein synthesis in Raji cells; test: Antimetabolic activity assay, [4,5-3H]leucine incorporation (protein synthesis), Raji; format: cell-based; settings: Homo sapiens, incorporation into TCA-insoluble material
[7] = system: RNA synthesis in CEM cells; test: Antimetabolic activity assay, [5-3H]uridine incorporation (RNA synthesis), CEM; format: cell-based; settings: Homo sapiens, CCRF-CEM, incorporation into TCA-insoluble material
Summary of the method: (§3)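 10^5 CEM cells incubated 20 hrs at 37° C with 1 μCi [^3H-methyl]dThd, [5-^3H]Urd or [4,5-^3H]leu plus compound in a 5-fold dilution series. Incorporation measured as acid-insoluble radioactivity collected on glass fiber filters.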

[8] = system: PNT1A (UZ) prostate cells; test: Cytostatic assay, PNT1A (UZ); format: cell-based; settings: Homo sapiens, Table 4
Summary of the method: as §1

[9] = system: PC3 (rega) prostate cancer cells; test: Cytostatic assay, PC3 (rega); format: cell-based; settings: Table 4
Summary of the method: as §1

[10] = system: DU145 (UZ) prostate cancer cells; test: Cytostatic assay, DU145 (UZ); format: cell-based; settings: Homo sapiens, DU-145; Table 4
Summary of the method: as §1

[11] = system: DNA synthesis in CEM cells; test: Antimetabolic activity assay, [CH3-3H]dThd incorporation (DNA synthesis), CEM; format: cell-based; settings: Homo sapiens, CCRF-CEM, incorporation into TCA-insoluble material
Summary of the method: as §3

[12] = system: PLC/PRF/5 hepatoma cells; test: Cytostatic assay, PLC/PRF/5; format: cell-based; settings: Homo sapiens, Table 4
Summary of the method: as §1

[13] = system: MT-4 cells; test: Cytostatic assay, MT-4; format: cell-based; settings: Homo sapiens, MT4; Table 2
Summary of the method: as §1

[14] = system: 22Rv1 (UZ) prostate cancer cells; test: Cytostatic assay, 22Rv1 (UZ); format: cell-based; settings: Homo sapiens, Table 4
Summary of the method: as §1

[15] = system: Caki-2 kidney carcinoma cells; test: Cytostatic assay, Caki-2; format: cell-based; settings: Homo sapiens, Table 3
Summary of the method: as §1

[16] = system: broad variety of tumor cell lines; test: Cytostatic assays, summary over the panel of cell lines (Tables 2-4); format: cell-based
Experimental: as §2

[17] = system: PC-3 (UZ) prostate cancer cells; test: Cytostatic assay, PC-3 (UZ); format: cell-based; settings: Table 4
Summary of the method: as §1

[18] = system: DNA synthesis in Raji cells; test: Antimetabolic activity assay, [CH3-3H]dThd incorporation (DNA synthesis), Raji; format: cell-based; settings: Homo sapiens, incorporation into TCA-insoluble material
[19] = system: C8166 cells; test: Cytostatic assay, C8166; format: cell-based; settings: Homo sapiens, Table 2
Summary of the method: as §1

[20] = system: HT29 colorectal carcinoma cells; test: Cytostatic assay, HT29; format: cell-based; settings: Homo sapiens, HT-29; Table 3
Summary of the method: as §1

[21] = system: RNA synthesis in Raji cells; test: Antimetabolic activity assay, [5-3H]uridine incorporation (RNA synthesis), Raji; format: cell-based; settings: Homo sapiens, incorporation into TCA-insoluble material
[22] = system: MT-2 cells; test: Cytostatic assay, MT-2; format: cell-based; settings: Homo sapiens, MT2; Table 2
Summary of the method: as §1

[23] = system: Sup T1 cells; test: Cytostatic assay, Sup T1; format: cell-based; settings: Homo sapiens, Table 2, read-out: Cytostatic activity (μM) Sup T 1
Summary of the method: as §1

[24] = system: U87 glioma cells; test: Cytostatic assay, U87; format: cell-based; settings: Homo sapiens, U-87 MG; Table 3
Summary of the method: as §1

[25] = system: Molt4/C8 cells; test: Cytostatic assay, Molt4/C8; format: cell-based; settings: Table 2
Summary of the method: as §1

[26] = system: Caki-1 kidney carcinoma cells; test: Cytostatic assay, Caki-1; format: cell-based; settings: Homo sapiens, Table 3
Summary of the method: as §1

[27] = system: THP-1, human monocytic cells; test: Cytostatic assay, THP-1; format: cell-based; settings: Table 2
Summary of the method: as §1

[28] = system: OST TK- osteosarcoma cells; test: Cytostatic assay, OST TK-; format: cell-based; settings: Homo sapiens; Table 3
Summary of the method: as §1

[29] = system: Daudi, human B-lymphoma cells; test: Cytostatic assay, Daudi; format: cell-based; settings: Table 2
Experimental: as §2

[30] = system: Raji, human B-lymphoma cells; test: Cytostatic assay, Raji; format: cell-based; settings: Table 2
Summary of the method: as §1

[31] = system: Huh-7 hepatoma cells; test: Cytostatic assay, Huh-7; format: cell-based; settings: Homo sapiens, Table 4
Summary of the method: as §1

[32] = system: MCF-7 mammary carcinoma cells; test: Cytostatic assay, MCF-7; format: cell-based; settings: Homo sapiens, MCF7; Table 3
Summary of the method: as §1

[33] = system: protein synthesis in CEM cells; test: Antimetabolic activity assay, [4,5-3H]leucine incorporation (protein synthesis), CEM; format: cell-based; settings: Homo sapiens, CCRF-CEM, incorporation into TCA-insoluble material
Summary of the method: as §3

[34] = system: HUT-78 cells; test: Cytostatic assay, HUT-78; format: cell-based; settings: Homo sapiens, HuT78; Table 2
Summary of the method: as §1

[35] = system: FM3A mammary carcinoma cells; test: Cytostatic assay, FM3A; format: cell-based, murine; settings: Mus musculus, Table 3
Summary of the method: as §1

[36] = system: HeLa cervix carcinoma cells; test: Cytostatic assay, HeLa; format: cell-based, human; settings: Homo sapiens; Table 3; read-out: Cytostatic activity (μM) Hela
Summary of the method: as §1

[37] = system: BAEC aortic endothelial cells; test: Cytostatic assay, BAEC; format: cell-based, bovine; settings: Bos taurus, Table 3
Summary of the method: as §1

[38] = system: U937, human monocytic cells; test: Cytostatic assay, U937; format: cell-based; settings: U-937, Table 2
Summary of the method: as §1

[39] = system: HepG2C3A hepatoma cells; test: Cytostatic assay, HepG2C3A; format: cell-based; settings: Homo sapiens, HepG2/C3A; Table 4
Summary of the method: as §1

[40] = system: BPH-1 (UZ); test: Cytostatic assay, BPH-1 (UZ); format: cell-based; settings: Homo sapiens, Table 4
Summary of the method: as §1

[41] = system: U87 CD4+/CXCR4+/CCR5+ glioma cells; test: Cytostatic assay, U87 CD4+/CXCR4+/CCR5+; format: cell-based; settings: Homo sapiens, Glioma cell; Table 3
Experimental: as §2

[42] = system: 293T embryonic kidney cells; test: Cytostatic assay, 293T; format: cell-based; settings: Homo sapiens, HEK-293T; Table 3
Summary of the method: as §1

[43] = system: CEM cells; test: Cytostatic assay, CEM; format: cell-based; settings: Homo sapiens, CCRF-CEM
Summary of the method: as §1

[44] = Homo sapiens, HuT78, range for the seven compounds, MT-4 and HUT-78 cells, read-out: IC50 range, cytostatic activity against MT-4 and HUT-78 cells
[45] = range for the seven compounds against the 5 tumor cell lines, read-out: IC50 range, cytostatic activity against CEM, Molt4/C8, Sup T1, MT-2 and C8166 cells
[46] = Table 1a, read-out: IC50 μM (CEM)
[47] = Table 2, read-out: Cytostatic activity (μM) CEM

COC(=O)c1cc(CCc2ccccc2)sc1N [TR575, 2-Amino-5-phenethyl-thiophene-3-carboxylic acid methyl ester]
IC50 [1]: 5.7 ± 7.2 µM
IC50 [2]: 25 µM
IC50 [3]: 0.35 ± 0.014 µM
IC50 [4]: 38 ± 12 µM
IC50 [5]: 48 ± 1.4 µM
IC50 [6]: 84 ± 6 µM
IC50 [7]: 0.96 ± 0.37 µM
IC50 [8]: 39 ± 3.5 µM
IC50 [9]: 0.24 ± 0.19 µM
IC50 [10]: 5.4 ± 0.96 µM
IC50 [11]: 3.1 ± 1 µM
IC50 [12]: 44 ± 2.1 µM
IC50 [13]: 27 ± 0.71 µM
IC50 [14]: 9.1 ± 0.35 µM
IC50 [15]: 43 ± 4.2 µM
IC50 [16, 44]: 8.5 to 60 µM
IC50 [16, 45]: 0.22 to 3.4 µM
IC50 [17]: 0.51 ± 0.064 µM
IC50 [18]: ≥ 100 µM
IC50 [19]: 2.2 µM
IC50 [20]: 41 ± 2.8 µM
IC50 [21]: > 100 µM
IC50 [22]: 0.79 ± 0.092 µM
IC50 [23]: 1.1 ± 0.73 µM
IC50 [24]: 50 ± 3.5 µM
IC50 [25]: 1.2 ± 0.6 µM
IC50 [26]: 6.5 ± 3.5 µM
IC50 [27]: 38 ± 6.4 µM
IC50 [28]: 9.8 ± 7.4 µM
IC50 [29]: 38 ± 2.1 µM
IC50 [30]: 50 ± 3.5 µM
IC50 [31]: 1.7 ± 0.21 µM
IC50 [32]: 36 ± 9.2 µM
IC50 [33]: 0.61 ± 0.04 µM
IC50 [34]: 36 ± 13 µM
IC50 [35]: 67 ± 18 µM
IC50 [36]: 38 ± 2.8 µM
IC50 [37]: 26 ± 4.2 µM
IC50 [38]: 46 ± 7.1 µM
IC50 [39]: 10 ± 5.2 µM
IC50 [40]: 52 ± 1.4 µM
IC50 [41]: 73 ± 3.5 µM
IC50 [42]: 45 ± 16 µM
IC50 [43, 46]: 1.5 µM
IC50 [43, 47]: 1.5 ± 1.3 µM

COC(=O)c1cc(CCc2ccc(OC)cc2C)sc1N [TR583, 2-Amino-5-[2-(4-methoxy-2-methyl-phenyl)-ethyl]-thiophene-3-carboxylic acid methyl ester]
IC50 [1]: 4.9 ± 5.4 µM
IC50 [2]: 248 ± 40 µM
IC50 [3]: 0.35 ± 0.067 µM
IC50 [4]: 87 ± 19 µM
IC50 [5]: 67 ± 6.4 µM
IC50 [6]: > 100 µM
IC50 [7]: 1 ± 0.5 µM
IC50 [8]: > 100 µM
IC50 [9]: 0.57 ± 0.3 µM
IC50 [10]: 14 ± 1.2 µM
IC50 [11]: 3.1 ± 0.3 µM
IC50 [12]: 62 ± 21 µM
IC50 [13]: 60 ± 0.71 µM
IC50 [14]: 21 ± 17 µM
IC50 [15]: ≥ 200 µM
IC50 [16, 44]: 8.5 to 60 µM
IC50 [16, 45]: 0.22 to 3.4 µM
IC50 [17]: 1.3 ± 0.071 µM
IC50 [18]: > 100 µM
IC50 [19]: 1.6 ± 0.95 µM
IC50 [20]: > 100 µM
IC50 [21]: > 100 µM
IC50 [22]: 1.8 ± 0.64 µM
IC50 [23]: 0.95 ± 0.64 µM
IC50 [24]: > 100 µM
IC50 [25]: 0.27 ± 0.27 µM
IC50 [26]: 4.5 ± 3.8 µM
IC50 [27]: 32 ± 4.9 µM
IC50 [28]: 10 ± 6.9 µM
IC50 [29]: 61 ± 1.4 µM
IC50 [30]: 93 ± 11 µM
IC50 [31]: 4.6 ± 0.28 µM
IC50 [32]: 79 ± 30 µM
IC50 [33]: 1.9 ± 1.6 µM
IC50 [34]: 39 ± 27 µM
IC50 [35]: 49 ± 9.9 µM
IC50 [36]: 105 ± 68 µM
IC50 [37]: 44 ± 22 µM
IC50 [38]: 40 ± 2.8 µM
IC50 [39]: 13 ± 0.71 µM
IC50 [40]: > 100 µM
IC50 [41]: 48 ± 6.4 µM
IC50 [42]: 84 ± 23 µM
IC50 [43, 46]: 1.5 µM
IC50 [43, 47]: 1.5 ± 0.28 µM
